Measurements: ChEMBL document CHEMBL1201862, “PubChem BioAssay data set” (2004)
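Where inhibition never reached the appropriate level, the endpoint shown equals the highest concentration tested. Otherwise, values were interpolated linearly from a five-concentration, 48-hour dose response in 96-well plates. GI50: concentration for 50% inhibition of growth.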 Active and inactive are the calls of the source. No stated cut-off is given here; in the data, active = GI50 up to about 1.1 µM and inactive = higher.

Legend:
Experiment in all cases: inhibition of tumour cell growth, NCI panel, 48 h
786-0 = test system: 786-0
ACHN = test system: ACHN
COLO 205 = test system: COLO 205
EKVX = test system: EKVX
HCC 2998 = test system: HCC 2998
HCT-15 = test system: HCT-15
HL-60 = test system: HL-60
OVCAR-3 = test system: OVCAR-3
OVCAR-8 = test system: OVCAR-8
RPMI-8226 = test system: RPMI-8226
SF-268 = test system: SF-268
SN12C = test system: SN12C
SNB-19 = test system: SNB-19
U-251 = test system: U-251
SK-OV-3 = test system: SK-OV-3

SMILES | GI50 (786-0) | GI50 (ACHN) | GI50 (COLO 205) | GI50 (EKVX) | GI50 (HCC 2998) | GI50 (HCT-15) [µM] | GI50 (HL-60) | GI50 (OVCAR-3) | GI50 (OVCAR-8) | GI50 (RPMI-8226) | GI50 (SF-268) | GI50 (SN12C) | GI50 (SNB-19) | GI50 (U-251) | GI50 (SK-OV-3)
O=C1c2ccccc2-c2cccc3ccc(Cc4ccc5ccccc5c4)c1c23 | 76.6 µM (inactive) | > 100 µM (inactive) | > 100 µM (inactive) | > 100 µM (inactive) | > 100 µM (inactive) | > 100 | > 100 µM (inactive) | > 100 µM (inactive) | > 100 µM (inactive) | > 100 µM (inactive) | > 100 µM (inactive) | > 100 µM (inactive) | > 100 µM (inactive) | 98.2 µM (inactive) | 
N/N=c1\c2ccccc2c2ccc3c4ccccc4/c(=N\N)c3c12 | > 100 µM (inactive) | > 100 µM (inactive) | > 100 µM (inactive) | > 100 µM (inactive) | > 100 µM (inactive) | > 100 | > 100 µM (inactive) |  | > 100 µM (inactive) | > 100 µM (inactive) | > 100 µM (inactive) | > 100 µM (inactive) | > 100 µM (inactive) | > 100 µM (inactive) | > 100 µM (inactive)
CC(=O)Nc1ccc(C(=O)N2N=C(C)/C(=C/c3cccc(O)c3)C2=O)cc1 | > 100 µM (inactive) | > 100 µM (inactive) | > 100 µM (inactive) | > 100 µM (inactive) | > 100 µM (inactive) | > 100 |  | > 100 µM (inactive) | > 100 µM (inactive) |  | > 100 µM (inactive) | > 100 µM (inactive) | > 100 µM (inactive) | > 100 µM (inactive) | 
CN(C)c1ccc(C=C2C(=O)OC(C)(C)OC2=O)cc1Br | > 100 µM (inactive) | > 100 µM (inactive) | > 100 µM (inactive) | > 100 µM (inactive) | > 100 µM (inactive) |  | 41.1 µM (inactive) | > 100 µM (inactive) | > 100 µM (inactive) | > 100 µM (inactive) | > 100 µM (inactive) | > 100 µM (inactive) | > 100 µM (inactive) | > 100 µM (inactive) | > 100 µM (inactive)
O/N=C/c1ncccc1C1OCCO1 | > 100 µM (inactive) | > 100 µM (inactive) | > 100 µM (inactive) | > 100 µM (inactive) |  | > 100 | > 100 µM (inactive) | > 100 µM (inactive) | > 100 µM (inactive) |  | > 100 µM (inactive) | > 100 µM (inactive) | > 100 µM (inactive) | > 100 µM (inactive) | > 100 µM (inactive)
CC(=O)OCc1nnn2c1C(OC(C)=O)CC2 (stereo not given) | > 100 µM (inactive) | > 100 µM (inactive) | > 100 µM (inactive) | > 100 µM (inactive) | > 100 µM (inactive) | > 100 |  | > 100 µM (inactive) | > 100 µM (inactive) | > 100 µM (inactive) |  | > 100 µM (inactive) | > 100 µM (inactive) | > 100 µM (inactive) | > 100 µM (inactive)
CN1C=C(C(N)=O)Cc2ccsc21 | > 100 µM (inactive) | > 100 µM (inactive) | > 100 µM (inactive) | > 100 µM (inactive) | > 100 µM (inactive) | > 100 | > 100 µM (inactive) | > 100 µM (inactive) | > 100 µM (inactive) | > 100 µM (inactive) | > 100 µM (inactive) | > 100 µM (inactive) | > 100 µM (inactive) | > 100 µM (inactive) | > 100 µM (inactive)
O=C1NCCCC12CCCNC2=O | > 100 µM (inactive) | > 100 µM (inactive) | > 100 µM (inactive) | > 100 µM (inactive) | > 100 µM (inactive) | > 100 | > 100 µM (inactive) | > 100 µM (inactive) | > 100 µM (inactive) | > 100 µM (inactive) | > 100 µM (inactive) | > 100 µM (inactive) | > 100 µM (inactive) | > 100 µM (inactive) | > 100 µM (inactive)
